This is an account of results in patent US20220288213A1, “INSULIN ANALOGUES WITH GLUCOSE REGULATED CONFORMATIONAL SWITCH” (Thermalin Inc., priority 2019, published 2022).

Assay [1] is described as follows: Alizarin Red S (ARS) competitive assay, glucose as competitor. In kind it is binding. Here is the method:
Stock solutions of test compounds, competitor (polyols, i.e., fructose and glucose), and Alizarin Red S (ARS) were dissolved in 0.1 mM Sodium Phosphate, pH 7.4. In a 96-well plate, stock solutions were combined to final concentrations of 20 μm ARS, 0.1 mM test compound, and varying competitor concentrations (0, 5, 10, 15, and/or 25 mM). Final solution (75 μL) was added to each plate well. Fluorescence data was acquired on Molecular Devices SpectraMax M2 with excitation at 456 nm and emission at 600 nm. In this assay, the selectivity of synthesized constructs for glucose was determined using the ARS competitive assay. Test articles were incubated with ARS and competitors (i.e. glucose and fructose) were added at varying concentrations. ARS fluorescence increases when the molecule interacts with boronic acids. The fluorescence was measured after the addition of the competitor. A decrease in fluorescence indicates the displacement of the ARS molecule by the sensor. All data were normalized to the fluorescence of an untreated solution (ARS bound to the sensing unit). […] This was not observed when FPBA was incubated with glucose. […] These are peptides modified to include glucose sensors at the lysyl residue. DA-Z4 is an L-diaminopropionic acid modified to include two benzoxoxaboroles. DA-Z16 is an D-diaminobutyric acid modified to include two benzoxaboroles. […]

Assay [2] can be described thus: Alizarin Red S (ARS) competitive assay, fructose as competitor. In kind it is binding. To be noted: 20 μm ARS, 0.1 mM test compound, competitor 0-25 mM, pH 7.4; a decrease means ARS is displaced. On the procedure: Stock solutions of test compounds, competitor (polyols, i.e., fructose and glucose), and Alizarin Red S (ARS) were dissolved in 0.1 mM Sodium Phosphate, pH 7.4. In a 96-well plate, stock solutions were combined to final concentrations of 20 μm ARS, 0.1 mM test compound, and varying competitor concentrations (0, 5, 10, 15, and/or 25 mM). Final solution (75 μL) was added to each plate well. Fluorescence data was acquired on Molecular Devices SpectraMax M2 with excitation at 456 nm and emission at 600 nm.
In this assay, the selectivity of synthesized constructs for glucose was determined using the ARS competitive assay. Test articles were incubated with ARS and competitors (i.e. glucose and fructose) were added at varying concentrations. ARS fluorescence increases when the molecule interacts with boronic acids. The fluorescence was measured after the addition of the competitor. A decrease in fluorescence indicates the displacement of the ARS molecule by the sensor. All data were normalized to the fluorescence of an untreated solution (ARS bound to the sensing unit). […] This was not observed when FPBA was incubated with glucose. […] These are peptides modified to include glucose sensors at the lysyl residue. DA-Z4 is an L-diaminopropionic acid modified to include two benzoxoxaboroles. DA-Z16 is an D-diaminobutyric acid modified to include two benzoxaboroles. […]

With `O=C(NC[C@H](NC(=O)c1ccc2c(c1)B(O)OC2)C(=O)O)c1ccc2c(c1)B(O)OC2` [DA-Z4, (S)-2,3-bis(1-hydroxy-1,3-dihydrobenzo[c][1,2]oxaborole-6-carboxamido)propanoic acid], in assay [1] (ARS data), the “binding to glucose compared to monoboronic acids such as FPBA and FPBA KB28 PB29” value is recorded as “stronger binding to glucose”.

Consider fluoro-phenylboronic acid [FPBA], for which the “ARS fluorescence signal when treated with fructose” value in assay [2] is on record as “fluorescence signal decreases”. The “ARS fluorescence signal decrease when incubated with glucose” value in assay [1] (20 μm ARS, 0.1 mM test compound, competitor 0-25 mM, pH 7.4) is recorded as “not observed”.
